In brackets after ≈: the same amount, converted by molar mass. Like-named read-outs stand apart in the source and are kept apart here.
Tests used:
[1] = tested on: Escherichia coli ATCC 25922, CCM 3954; test: Antibacterial microdilution broth method, E. coli; type: cell-based; conditions: Escherichia coli
[2] = tested on: Aspergillus fumigatus 231; test: Antifungal microdilution broth method, A. fumigatus; type: cell-based
Method in brief: (§1)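 EUCAST-based broth microdilution, modified, in RPMI-1640 with L-glutamine, 2% glucose, MOPS-buffered to pH 7.0; compounds dissolved in DMSO and twofold diluted. MIC read visually, in duplicate, valid only if replicates agree within one dilution step.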

[3] = tested on: Mycobacterium kansasii 235/80; test: Antimycobacterial micromethod in Šula's medium, M. kansasii 235/80; type: cell-based
[4] = tested on: Mycobacterium avium 330/88; test: Antimycobacterial micromethod in Šula's medium, M. avium; type: cell-based
[5] = tested on: Lichtheimia corymbifera 272; test: Antifungal microdilution broth method, L. corymbifera; type: cell-based
Method in brief: as §1

[6] = tested on: Staphylococcus aureus ATCC 29213, CCM 4223; test: Antibacterial microdilution broth method, S. aureus; type: cell-based
[7] = tested on: Pseudomonas aeruginosa ATCC 27853, CCM 3955; test: Antibacterial microdilution broth method, P. aeruginosa; type: cell-based; conditions: Pseudomonas aeruginosa, P. aeruginosa
[8] = tested on: Candida glabrata 20/I; test: Antifungal microdilution broth method, C. glabrata; type: cell-based; conditions: Nakaseomyces glabratus
Method in brief: as §1

[9] = tested on: Staphylococcus epidermidis H 6966/08; test: Antibacterial microdilution broth method, S. epidermidis; type: cell-based; conditions: Staphylococcus epidermidis, H6966/08, S. epidermidis
[10] = tested on: Trichosporon asahii 1188; test: Antifungal microdilution broth method, T. asahii; type: cell-based
Method in brief: as §1

[11] = tested on: Trichophyton interdigitale 445; test: Antifungal microdilution broth method, T. interdigitale; type: cell-based
Method in brief: as §1

[12] = tested on: Klebsiella pneumoniae D 11750/08; test: Antibacterial microdilution broth method, K. pneumoniae; conditions: K. pneumoniae D 11750/08; for MIC KP 24 h: 24 h incubation; for MIC KP 48 h: 48 h incubation
[13] = tested on: Mycobacterium tuberculosis H37Rv (331/88); test: Antimycobacterial micromethod in Šula's medium, M. tuberculosis; type: cell-based
[14] = tested on: Enterococcus faecalis ATCC 29212, CCM 4224; test: Antibacterial microdilution broth method, E. faecalis; type: cell-based; conditions: Enterococcus faecalis
[15] = tested on: Candida krusei E28; test: Antifungal microdilution broth method, C. krusei; type: cell-based; conditions: Pichia kudriavzevii
Method in brief: as §1

[16] = tested on: M. kansasii 6509/96 (clinical isolate); test: Antimycobacterial micromethod in Šula's medium, M. kansasii 6509/96; type: cell-based; conditions: Mycobacterium kansasii
[17] = 24 h incubation, read-out: MIC EC 24 h
[18] = 48 h incubation, read-out: MIC EC 48 h
[19] = 235/80, 168 h, 7 days incubation at 37 °C, read-out: MIC M. kansasii 235/80 7 d
[20] = 235/80, 336 h, 14 days incubation at 37 °C, read-out: MIC M. kansasii 235/80 14 d
[21] = 235/80, 504 h, 21 days incubation at 37 °C, read-out: MIC M. kansasii 235/80 21 d
[22] = 330/88, 336 h, 14 days incubation at 37 °C, read-out: MIC M. avium 330/88 14 d
[23] = 330/88, 504 h, 21 days incubation at 37 °C, read-out: MIC M. avium 330/88 21 d
[24] = 24 h incubation, read-out: MIC SA 24 h
[25] = 48 h incubation, read-out: MIC SA 48 h
[26] = 24 h incubation, read-out: MIC PA 24 h
[27] = 48 h incubation, read-out: MIC PA 48 h
[28] = 24 h incubation, read-out: MIC SE 24 h
[29] = 48 h incubation, read-out: MIC SE 48 h
[30] = 336 h, 14 days incubation at 37 °C, read-out: MIC Mtb. 331/88 14 d
[31] = 504 h, 21 days incubation at 37 °C, read-out: MIC Mtb. 331/88 21 d
[32] = 24 h incubation, read-out: MIC EF 24 h
[33] = 48 h incubation, read-out: MIC EF 48 h
[34] = 168 h, 7 days incubation at 37 °C, read-out: MIC M. kansasii 6509/96 7 d
[35] = 336 h, 14 days incubation at 37 °C, read-out: MIC M. kansasii 6509/96 14 d
[36] = 504 h, 21 days incubation at 37 °C, read-out: MIC M. kansasii 6509/96 21 d

O=C(O)c1ccc(N=Cc2cc(Cl)cc(I)c2O)cc1 [1p, 4-[(5-Chloro-2-hydroxy-3-iodobenzylidene)amino]benzoic acid]
MIC [1, 17]: 62.5 µM (≈ 25.1 µg/mL)
MIC [1, 18]: 62.5 µM (≈ 25.1 µg/mL)
MIC ([2]; 24 h, read-out: MIC AF 24 h): 125 µM (≈ 50.2 µg/mL)
MIC ([2]; 48 h, read-out: MIC AF 48 h): 125 µM (≈ 50.2 µg/mL)
MIC [3, 19]: 250 µM (≈ 100 µg/mL)
MIC [3, 20]: 500 µM (≈ 201 µg/mL)
MIC [3, 21]: 500 µM (≈ 201 µg/mL)
MIC [4, 22]: 500 µM (≈ 201 µg/mL)
MIC [4, 23]: 1000 µM (≈ 402 µg/mL)
MIC ([5]; 24 h, read-out: MIC LC 24 h): 250 µM (≈ 100 µg/mL)
MIC ([5]; 48 h, read-out: MIC LC 48 h): 250 µM (≈ 100 µg/mL)
MIC [6, 24]: 15.6 µM (≈ 6.27 µg/mL)
MIC [6, 25]: 15.6 µM (≈ 6.27 µg/mL)
MIC [7, 26]: > 500 µM
MIC [7, 27]: > 500 µM
MIC ([8]; 24 h, read-out: MIC CG 24 h): 7.81 µM (≈ 3.14 µg/mL)
MIC ([8]; 48 h, read-out: MIC CG 48 h): 7.81 µM (≈ 3.14 µg/mL)
MIC [9, 28]: 31.2 µM (≈ 12.5 µg/mL)
MIC [9, 29]: 31.2 µM (≈ 12.5 µg/mL)
MIC ([10]; 24 h, read-out: MIC TA 24 h): 7.81 µM (≈ 3.14 µg/mL)
MIC ([10]; 48 h, read-out: MIC TA 48 h): 7.81 µM (≈ 3.14 µg/mL)
MIC ([11]; 72 h, read-out: MIC TI 72 h): 7.81 µM (≈ 3.14 µg/mL)
MIC ([11]; 120 h, read-out: MIC TI 120 h): 7.81 µM (≈ 3.14 µg/mL)
MIC KP 24 h [12]: 125 µM (≈ 50.2 µg/mL)
MIC KP 48 h [12]: 125 µM (≈ 50.2 µg/mL)
MIC [13, 30]: 250 µM (≈ 100 µg/mL)
MIC [13, 31]: 250 µM (≈ 100 µg/mL)
MIC [14, 32]: 62.5 µM (≈ 25.1 µg/mL)
MIC [14, 33]: 62.5 µM (≈ 25.1 µg/mL)
MIC ([15]; 24 h, read-out: MIC CK 24 h): 15.6 µM (≈ 6.27 µg/mL)
MIC ([15]; 48 h, read-out: MIC CK 48 h): 15.6 µM (≈ 6.27 µg/mL)
MIC [16, 34]: 250 µM (≈ 100 µg/mL)
MIC [16, 35]: 250 µM (≈ 100 µg/mL)
MIC [16, 36]: 500 µM (≈ 201 µg/mL)

O=C(O)c1ccc(N=Cc2cc(I)cc(I)c2O)cc1 [1q, 4-[(2-Hydroxy-3,5-diiodobenzylidene)amino]benzoic acid]
MIC [1, 17]: 500 µM (≈ 247 µg/mL)
MIC [1, 18]: 500 µM (≈ 247 µg/mL)
MIC ([2]; 24 h, read-out: MIC AF 24 h): 125 µM (≈ 61.6 µg/mL)
MIC ([2]; 48 h, read-out: MIC AF 48 h): 125 µM (≈ 61.6 µg/mL)
MIC [3, 19]: 250 µM (≈ 123 µg/mL)
MIC [3, 20]: 500 µM (≈ 247 µg/mL)
MIC [3, 21]: 500 µM (≈ 247 µg/mL)
MIC [4, 22]: 500 µM (≈ 247 µg/mL)
MIC [4, 23]: 500 µM (≈ 247 µg/mL)
MIC ([5]; 24 h, read-out: MIC LC 24 h): 250 µM (≈ 123 µg/mL)
MIC ([5]; 48 h, read-out: MIC LC 48 h): 250 µM (≈ 123 µg/mL)
MIC [6, 24]: 62.5 µM (≈ 30.8 µg/mL)
MIC [6, 25]: 62.5 µM (≈ 30.8 µg/mL)
MIC [7, 26]: > 500 µM
MIC [7, 27]: > 500 µM
MIC ([8]; 24 h, read-out: MIC CG 24 h): 7.81 µM (≈ 3.85 µg/mL)
MIC ([8]; 48 h, read-out: MIC CG 48 h): 7.81 µM (≈ 3.85 µg/mL)
MIC [9, 28]: 62.5 µM (≈ 30.8 µg/mL)
MIC [9, 29]: 62.5 µM (≈ 30.8 µg/mL)
MIC ([10]; 24 h, read-out: MIC TA 24 h): 15.6 µM (≈ 7.7 µg/mL)
MIC ([10]; 48 h, read-out: MIC TA 48 h): 15.6 µM (≈ 7.7 µg/mL)
MIC ([11]; 72 h, read-out: MIC TI 72 h): 7.81 µM (≈ 3.85 µg/mL)
MIC ([11]; 120 h, read-out: MIC TI 120 h): 7.81 µM (≈ 3.85 µg/mL)
MIC KP 24 h [12]: 500 µM (≈ 247 µg/mL)
MIC KP 48 h [12]: 500 µM (≈ 247 µg/mL)
MIC [13, 30]: 250 µM (≈ 123 µg/mL)
MIC [13, 31]: 250 µM (≈ 123 µg/mL)
MIC [14, 32]: 500 µM (≈ 247 µg/mL)
MIC [14, 33]: 500 µM (≈ 247 µg/mL)
MIC ([15]; 24 h, read-out: MIC CK 24 h): 31.2 µM (≈ 15.4 µg/mL)
MIC ([15]; 48 h, read-out: MIC CK 48 h): 31.2 µM (≈ 15.4 µg/mL)
MIC [16, 34]: 250 µM (≈ 123 µg/mL)
MIC [16, 35]: 250 µM (≈ 123 µg/mL)
MIC [16, 36]: 250 µM (≈ 123 µg/mL)

— publication PMC7023430, “4-Aminobenzoic Acid Derivatives: Converting Folate Precursor to Antimicrobial and Cytotoxic Agents” (Biomolecules, 2019)
